For this assay, the target named is Prokineticin receptor 1 (Homo sapiens, UniProt Q8TCW9). The experiment in a line: Antagonist activity at human PKR1 expressed in RBL2H3 cells assessed as inhibition of prokineticin1-mediated intracellular calcium release preincubated for 10 mins followed by PK1 addition by FLIPR assay. In kind it is functional, cell-based, RBL-2H3. Background: A change in cytosolic calcium serves as a functional read-out for many receptors and channels.
Sequence of Prokineticin receptor 1 (Q8TCW9 whole entry): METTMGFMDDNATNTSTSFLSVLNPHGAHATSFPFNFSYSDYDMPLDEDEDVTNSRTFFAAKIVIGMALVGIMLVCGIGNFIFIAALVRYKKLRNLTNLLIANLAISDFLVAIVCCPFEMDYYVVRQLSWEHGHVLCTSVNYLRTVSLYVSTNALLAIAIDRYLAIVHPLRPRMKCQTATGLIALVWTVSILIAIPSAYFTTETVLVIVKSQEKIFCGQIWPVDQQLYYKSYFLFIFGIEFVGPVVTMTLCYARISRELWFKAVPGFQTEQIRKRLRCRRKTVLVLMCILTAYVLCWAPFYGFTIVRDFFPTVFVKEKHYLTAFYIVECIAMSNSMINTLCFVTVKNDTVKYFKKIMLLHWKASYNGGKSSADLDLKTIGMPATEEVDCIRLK

In the case of `Cc1n[nH]c(C)c1S(=O)(=O)N1CCC(=C(F)c2ccc(F)cc2F)CC1`, the IC50 was found to be 1630 nM.

The term IC50 denotes the concentration that inhibits the measured activity by half.

The record behind these values is ChEMBL document CHEMBL3879916, “1-sulfonyl piperidine derivatives as modulators of prokineticin receptors” (2014).
